Source: ChEMBL document CHEMBL1201862, “PubChem BioAssay data set” (2004)
The source made the active and inactive calls.

Experiments:
[1] = molecular target: Photoreceptor-specific nuclear receptor (Homo sapiens, UniProt Q9Y5X4); assay type: functional;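 note: potency for compounds that break the NR2E3 corepressor complex and count as activators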
[2] = molecular target: Protein-tyrosine kinase 2-beta (Homo sapiens, UniProt Q14289);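 note: potency of inhibitors of PYK2 kinase phosphorylation of poly-GT substrate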
Chain of Protein-tyrosine kinase 2-beta (Q14289 whole entry): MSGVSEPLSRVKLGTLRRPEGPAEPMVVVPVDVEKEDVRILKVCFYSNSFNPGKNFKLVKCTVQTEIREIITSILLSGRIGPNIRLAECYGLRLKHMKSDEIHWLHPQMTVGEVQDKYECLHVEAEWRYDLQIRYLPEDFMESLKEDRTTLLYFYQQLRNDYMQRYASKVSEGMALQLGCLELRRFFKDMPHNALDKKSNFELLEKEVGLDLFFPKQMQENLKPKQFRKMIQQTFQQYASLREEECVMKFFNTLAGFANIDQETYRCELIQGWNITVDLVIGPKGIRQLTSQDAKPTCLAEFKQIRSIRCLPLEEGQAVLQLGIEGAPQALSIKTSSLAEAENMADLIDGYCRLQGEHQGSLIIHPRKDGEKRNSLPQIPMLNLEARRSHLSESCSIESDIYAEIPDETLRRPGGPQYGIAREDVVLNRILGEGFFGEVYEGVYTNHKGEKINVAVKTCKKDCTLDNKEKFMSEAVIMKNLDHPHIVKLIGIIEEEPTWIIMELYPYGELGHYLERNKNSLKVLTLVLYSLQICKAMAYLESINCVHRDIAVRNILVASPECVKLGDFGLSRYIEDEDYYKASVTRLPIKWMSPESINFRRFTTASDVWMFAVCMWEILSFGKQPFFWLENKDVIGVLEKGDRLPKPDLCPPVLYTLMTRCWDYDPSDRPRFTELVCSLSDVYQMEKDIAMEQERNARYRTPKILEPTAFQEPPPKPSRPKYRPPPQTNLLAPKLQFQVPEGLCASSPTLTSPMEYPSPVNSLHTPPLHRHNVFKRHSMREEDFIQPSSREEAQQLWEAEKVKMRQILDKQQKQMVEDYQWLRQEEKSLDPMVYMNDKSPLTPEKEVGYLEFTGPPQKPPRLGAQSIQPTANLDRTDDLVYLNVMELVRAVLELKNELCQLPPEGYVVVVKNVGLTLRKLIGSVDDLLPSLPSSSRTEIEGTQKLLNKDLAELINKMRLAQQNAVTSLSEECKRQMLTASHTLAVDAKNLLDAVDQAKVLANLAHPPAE

[3] = molecular target: Paired box protein Pax-8 (Homo sapiens, UniProt Q06710); assay: inhibitors of PAX8-driven TPO luciferase reporter, dose response, RMG-I cells, cherry-pick (AID 687027); assay type: functional, cell-based;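 note: luciferase reporter driven by Pax8 target thyroperoxidase promoter measured by SteadyGlo luminescence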
Chain of Paired box protein Pax-8 (Q06710 whole entry): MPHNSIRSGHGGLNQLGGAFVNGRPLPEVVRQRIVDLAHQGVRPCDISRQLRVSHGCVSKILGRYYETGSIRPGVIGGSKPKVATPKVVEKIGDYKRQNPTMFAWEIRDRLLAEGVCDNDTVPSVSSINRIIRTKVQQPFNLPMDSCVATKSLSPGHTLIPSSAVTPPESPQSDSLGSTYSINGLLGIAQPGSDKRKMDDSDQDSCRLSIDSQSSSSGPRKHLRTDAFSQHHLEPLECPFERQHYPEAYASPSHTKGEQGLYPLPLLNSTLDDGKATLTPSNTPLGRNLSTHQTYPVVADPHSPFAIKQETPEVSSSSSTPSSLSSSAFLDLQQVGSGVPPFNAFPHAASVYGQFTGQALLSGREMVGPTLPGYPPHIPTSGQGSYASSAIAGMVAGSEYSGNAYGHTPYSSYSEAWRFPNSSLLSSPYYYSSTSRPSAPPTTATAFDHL

[4] = cytotoxicity in MIN6 insulinoma cells, dose response, cytotoxicity control, cell-based, mouse insulinoma (AID 2122); assay type: functional;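 note: confirmatory high-throughput counterscreen run to flag cytotoxic compounds; mouse MIN-6 beta cells carrying an insulin promoter eGFP reporter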
[5] = system: A-375; assay: MITF: Counter assay: A375 proliferation Measured in Cell-Based System Using Plate Reader - 2084-03_Inhibitor_Dose_DryPowder_Activity. [Related pubchem assays (depositor defined):AID488944]; assay type: functional; settings: Homo sapiens
[6] = insulin promoter down-regulators in MIN6 cells, imaging, high-content screening, mouse beta cells (AID 1628); assay type: functional
[7] = molecular target: T1, Mannose-6-phosphate isomerase (Homo sapiens, UniProt P34949); assay: human PMI inhibitors, high substrate, primary screen, biochemical, fluorescence intensity, high mannose 6-phosphate (AID 1220)
T1 sequence (P34949 whole entry): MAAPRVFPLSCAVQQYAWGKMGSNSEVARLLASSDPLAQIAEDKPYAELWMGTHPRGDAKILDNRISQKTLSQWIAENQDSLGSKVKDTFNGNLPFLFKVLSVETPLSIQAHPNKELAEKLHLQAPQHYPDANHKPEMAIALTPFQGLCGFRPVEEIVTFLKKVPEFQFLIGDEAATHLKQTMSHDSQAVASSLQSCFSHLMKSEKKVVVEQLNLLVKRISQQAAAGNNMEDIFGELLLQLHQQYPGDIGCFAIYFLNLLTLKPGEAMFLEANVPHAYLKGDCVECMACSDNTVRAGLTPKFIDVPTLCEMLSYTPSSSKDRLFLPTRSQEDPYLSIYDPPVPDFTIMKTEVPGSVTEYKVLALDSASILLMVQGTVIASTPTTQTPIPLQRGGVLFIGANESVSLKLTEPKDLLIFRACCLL

Chain of Photoreceptor-specific nuclear receptor (Q9Y5X4 whole entry): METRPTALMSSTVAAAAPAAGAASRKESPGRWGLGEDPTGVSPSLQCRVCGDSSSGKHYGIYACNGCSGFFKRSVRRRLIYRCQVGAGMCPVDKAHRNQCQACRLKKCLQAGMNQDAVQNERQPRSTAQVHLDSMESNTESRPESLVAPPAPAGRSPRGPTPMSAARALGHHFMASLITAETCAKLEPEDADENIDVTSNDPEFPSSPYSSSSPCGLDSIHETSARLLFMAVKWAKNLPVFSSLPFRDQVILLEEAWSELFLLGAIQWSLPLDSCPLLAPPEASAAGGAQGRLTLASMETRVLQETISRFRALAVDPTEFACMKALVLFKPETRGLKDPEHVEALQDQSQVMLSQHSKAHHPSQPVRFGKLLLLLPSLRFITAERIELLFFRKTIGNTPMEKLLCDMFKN

## O=C1C(=O)c2ccccc2-c2ccccc21 [9,10-PHENANTHRENEQUINONE]
[1]
  IC50: > 39.8 µM (not active)
[2]
  IC50: > 69.5 µM (not active)

## CCC(=O)OCCNc1cc(Sc2nccn2C)c2nonc2c1[N+](=O)[O-]
[3]
  AC50: 7.53 µM (active)

## O=C1C=C(N(CCO)Cc2ccccc2)c2ccccc2C1=O
[4]
  IC50: 3.71 µM (active)
[5]
  AC50: 37.8 µM (active)
[6]
  IC50: 5.11 µM (active)

## CCOC(=O)C1=C(c2ccc(OC)cc2)C(=O)c2ccccc2C1=O
[7]
  IC50: > 50 µM (not active)
